Assay results as given in patent US6809070B2, “Toilet bar having a latent acidifier” (Unilever Home & Personal Care USA, division of Conopco, Inc., priority 2001, dated 2004).
Read-outs that look alike come from different tables or passages of the source.

What was measured:
[1] = pH of 1% by wt. aqueous solutions; assay type: physicochemical
[2] = Aqueous slurry pH (10% slurry, 25 C); assay type: physicochemical
Experimental: Various inventive and comparative compounds were formulated with three separate toilet bar bases, 1, 2, and 3 at the 10% by wt. level and their aqueous slurry pH (see method below) was compared to a control shown in table 1. Inventive latent acidifiers are designated “I” and comparative compounds are designated “C”. The bar bases were formulated by blending all ingredients except the latent acidifier for about 30-40 minutes at temperatures of 180-230 F. After that, the latent acidifier is added and mixed for another few minutes until a uniform mixture is obtained. […] The latent acidifier could also be added in the chip mixer after the batch has been cooled and solidified in a spray dryer or a chill roll. This is followed by extrusion and stamping into a bar.
Method for Measuring Aqueous Slurry pH
Nine grams of the base formula and one gram of the latent acidifier (or a comparative compound) were blended together with 90 g of water to create a 10% slurry. The pH of the slurry was then measured at 25 C.

[3] = 1% by wt. aqueous solution of the compound
[4] = compound at 10% by wt. in toilet bar Base 1, 10% slurry, 25 C
[5] = compound at 10% by wt. in toilet bar Base 2, 10% slurry, 25 C
[6] = compound at 10% by wt. in toilet bar Base 3, 10% slurry, 25 C

| Molecule | pH of 1% Solution ([1]; pH 1) | Aqueous slurry pH, Base 1 [2] | Aqueous slurry pH, Base 2 [2] | Aqueous slurry pH, Base 3 [2] | pH of 1% Solution [1, 3] | Aqueous slurry pH, Base 1 [2, 4] | Aqueous slurry pH, Base 2 [2, 5] | Aqueous slurry pH, Base 3 [2, 6] | Aqueous slurry pH of bars [2] | Latent acidification effect [2] |
| --- | --- | --- | --- | --- | --- | --- | --- | --- | --- | --- |
| CC(=O)O.N [Ammonium Acetate] | 6.9 | 6.8 | 8.9 | 9.5 |  |  |  |  |  |  |
| Cl.N [Ammonium Chloride] |  |  |  |  | 4.9 | 6.5 | 8.7 | 9.1 |  |  |
| N.N.N.O=P(O)(O)O [Ammonium Phosphate] | 4.2 | 6.1 | 7.6 | 8.7 |  |  |  |  |  |  |
| N.N.O=S(=O)(O)O [Ammonium Sulfate] |  |  |  |  | 5.0 | 6.7 | 8.9 | 9.4 |  |  |
| CC(=O)[O-].CC(=O)[O-].[Ca+2] [Calcium Acetate] | 8.2 | 5.2 | 8.1 | 10.1 |  |  |  |  |  |  |
| O=C([O-])[O-].[Ca+2] [Calcium Carbonate, reference compound] | 9.2 | 7.0 | 9.0 | 10.6 |  |  |  |  |  |  |
| [Ca+2].[Cl-].[Cl-] [Calcium Chloride] | 9.3 | 4.2 | 6.9 | 9.8 |  |  |  |  |  |  |
| [Ca+2].[OH-].[OH-] [Calcium Hydroxide, reference compound] | 11.8 | 11.9 | 12.1 | 11.9 |  |  |  |  |  |  |
| O=[N+]([O-])[O-].O=[N+]([O-])[O-].[Ca+2] [Calcium Nitrate] | 5.3 | 5.2 | 8.6 | 10.1 |  |  |  |  |  |  |
| O=S(=O)([O-])[O-].[Ca+2] [Calcium Sulfate] |  | 4.9 | 8.8 | 10.2 |  |  |  |  | significant drop in pH | latent acidification effect |
| O=S(=O)([O-])[O-].O=S(=O)([O-])[O-].O=S(=O)([O-])[O-].[Fe+3].[Fe+3] [Ferric Sulfate] | 1.7 | 1.5 | 7.5 | 9.1 |  |  |  |  |  |  |
| [Cl-].[Cl-].[Mg+2] [Magnesium Chloride] | 5.2 | 5.9 | 8.4 | 10.0 |  |  |  |  |  |  |
| O=S(=O)([O-])[O-].[Mg+2] [Magnesium Sulfate] | 6.5 | 6.2 | 8.6 | 10.2 |  |  |  |  |  |  |
| O=C([O-])O.[Na+] [Sodium Bicarbonate, reference compound] |  |  |  |  | 8.3 | 7.5 | 8.8 | 9.4 |  |  |
| [Cl-].[Na+] [Sodium Chloride, reference compound] |  |  |  |  | 8.1 | 6.7 | 8.7 | 10.1 |  |  |
| O=P(O)(O)O [Sodium Phosphate, reference compound] | 9.1 | 7.2 | 8.9 | 10.2 |  |  |  |  |  |  |
| O=S(=O)([O-])[O-].[Na+].[Na+] [Sodium Sulfate, reference compound] | 9.1 | 6.9 | 8.9 | 10.3 |  |  |  |  |  |  |
| Calcium Phosphate | 3.7 | 5.4 | 7.2 | 8.6 |  |  |  |  |  |  |
